Test results taken from patent EP4527386A1, “ANTI-CANCER PHARMACEUTICAL COMPOSITION COMPRISING REGORAFENIB” (Eberhard-Karls-Universität Tübingen Universitätsklinikum, priority 2023, dated 2025).

Columns and labels:
glioma cell lines [1] = experiment: 72-hour acute cytotoxicity synergy assay in combination with regorafenib (ZIP synergy score); format: cell-based
Method: The combined inhibition of a resistance mechanism or a synthetic lethal interactor with regorafenib treatment should enhance the effect of regorafenib alone. Therefore, drugs targeting the different identified gene products were used in acute cytotoxicity synergy assays in combination with regorafenib to analyze the synergistic effect of drug combinations. Each of the 15 drugs was tested in a 72-hour acute cytotoxicity synergy assay in combination with regorafenib on six glioma cell lines in two independent runs. The calculated ZIP synergy score for each combination indicates if a combination is synergistic, the higher the score the stronger is the synergism. For the heatmaps shown in Fig. 3 the synergy scores were normalized within each cell line taking the highest synergy score detected in this cell line as 100% and a synergy score of 0 as 0%. For each target shown here identified in the CRISPR/Cas9 screens, the inventors detected a synergistic effect of the drug combination (for at least one drug when several drugs for the same target were tested).

SMA560 cells = experiment: in vivo glioma model, intracranially transplanted SMA560 cells; conditions: VM/Dk mice intracranially transplanted with SMA560 cells; treated for three weeks; experiment stopped at day 120; solvent control 58 days
Method: For drugs targeting Bcl2 family members (navitoclax, venetoclax), MEK1/MAP2K1 (selumetinib, trametinib), integrins (cilengitide), and ARAF (sorafenib) further assays were performed to analyze the synergistic effect in combination with Regorafenib. […] The inventors extracted primary cells from glioblastoma tissue to test our drug combinations ex vivo. Analyzing the combination effect on cell viability of regorafenib and navitoclax on four glioblastoma primary cultures the observed effect of the combination treatment was in each model synergistic compared to the predicted effect calculated from both monotherapies (Figs. 4 E and F). The combination of navitoclax and regorafenib was further validated in vivo in VM/Dk mice intracranially transplanted with SMA560 cells (data not shown). The mice were treated either with the drug combination, regorafenib, or navitoclax monotherapies, or a solvent control for three weeks. Time until onset of neurological symptoms was observed. The solvent control group reached its median after 58 days, navitoclax monotherapy after 60 days, and regorafenib monotherapy after 67 days.

glioma cell lines [2] = experiment: clonogenic survival assay; format: cell-based; conditions: combination with regorafenib vs regorafenib monotherapy

Row | Compound | synergistic effect in acute cytotoxicity synergy assays (ZIP synergy score) (glioma cell lines [1]) | Time until onset of neurological symptoms (median) (SMA560 cells) [days] | number of clones in clonogenic survival assays, combination treatment compared with regorafenib monotherapy (glioma cell lines [2])
1 | CC1(C)CCC(CN2CCN(c3ccc(C(=O)NS(=O)(=O)c4ccc(NCC5CCOCC5)c([N+](=O)[O-])c4)c(Oc4cnc5[nH]ccc5c4)c3)CC2)=C(c2ccc(Cl)cc2)C1 [venetoclax] | synergistic effects |  | 
2 | CNC(=O)c1cc(Oc2ccc(NC(=O)Nc3ccc(Cl)c(C(F)(F)F)c3)c(F)c2)ccn1 [regorafenib] |  | 67 | 
3 | CC1(C)CCC(c2ccc(Cl)cc2)=C(CN2CCN(c3ccc(C(=O)NS(=O)(=O)c4ccc(N[C@H](CCN5CCOCC5)CSc5ccccc5)c(S(=O)(=O)C(F)(F)F)c4)cc3)CC2)C1 [navitoclax] | synergistic effects | 60 | significantly reduced numbers of clones
